Structures can show the parent of a compound that is named as a salt.
What follows are molecules tested on progranulin (PGRN) secretion, BV-2 cells (assay: PGRN assay: progranulin induction cellular assay (ELISA of secreted mouse PGRN)). Details: not given.
Format: cell-based
Summary of the method: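 Progranulin induction measured in BV-2 cells plated at about 80% confluence the day before, given 1 h to attach, then incubated 16 h. Secreted mouse PGRN quantified by ELISA.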

`N#Cc1ccc2c(c1)CCN(C(=O)O[C@@H]1CN3CCC1CC3)[C@H]2c1ccc(F)cc1` [Compound 2033] was tested. Which EC50 did it give?
Its EC50 is > 10 µM.

For `CN1CCC([C@H]2c3ccccc3CCN2C(=O)O[C@@H]2CN3CCC2CC3)CC1=O` (stereo partly drawn) [Compound 2024, (S)-quinuclidin-3-yl 1-(1-methyl-2-oxopiperidin-4-yl)-3,4-dihydroisoquinoline-2(1H)-carboxylate], which EC50 is on record?
The EC50 was > 10 µM.

Same assay, conditions: Mus musculus, BV-2

With `O=C(OCC12CCN(CC1)CC2)N1CCc2ccccc2[C@@H]1c1ccc(F)cc1` [Compound 2001] as the molecule, how does the EC50 read?
The EC50 was 0.17 µM.

For `CS(=O)(=O)c1ccc2c(c1)CCN(C(=O)O[C@@H]1CN3CCC1CC3)[C@@H]2c1ccc(F)cc1` [Compound 2026], which EC50 is on record?
The EC50 was > 10 µM.

`COC(=O)c1ccc2c(c1)[C@H](c1ccc(F)cc1)N(C(=O)O[C@@H]1CN3CCC1CC3)CC2` [Compound 2029] was tested. Which EC50 did it give?
Its EC50 is > 10 µM.

Same assay, conditions: Mus musculus, BV-2, PGRN assay, Table C; secreted mouse PGRN in cell culture medium, ELISA

Which EC50 does the source give for `CN1CCC(COC(=O)N2CCc3ccccc3[C@@H]2c2cc(F)cc(F)c2)CC1` [Compound 2108] here?
The EC50 was > 3.16 µM.

For `C#CCOc1ccc2c(c1)C(c1ccc(F)cc1)N(C(=O)OCC13CCN(CC1)CC3)CC2` (stereo in doubt) [Compound 2053, (S)-quinuclidin-4-ylmethyl 1-(4-fluorophenyl)-7-(prop-2-ynyloxy)-3,4-dihydroisoquinoline-2(1H)-carboxylate], which EC50 is on record?
Its EC50 is 5.74 µM.

`O=C(C(O)[C@@H]1CN2CCC1CC2)N1CCc2ccccc2[C@@H]1c1ccc(F)cc1` (stereo partly drawn) [Compound 2074, 1-((S)-1-(4-fluorophenyl)-3,4-dihydroisoquinolin-2(1H)-yl)-2-hydroxy-2-(quinuclidin-3-yl)ethanone] was tested. Which EC50 did it give?
The EC50 was 3.4 µM.

Which EC50 does the source give for `O=C1C[C@@H](COC(=O)N2CCc3ccccc3[C@@H]2c2ccc(F)cc2)CCN1` (single isomer, unassigned) [Compound 2186, (1 S)-(2-oxopiperidin-4-yl)methyl 1-(4-fluorophenyl)-3,4-dihydroisoquinoline-2(1H)-carboxylate] here?
Its EC50 is > 10 µM.

Which EC50 does the source give for `CN(CC12CCN(CC1)CC2)C(=O)N1CCc2ccccc2[C@@H]1c1ccc(F)cc1` [Compound 2013] here?
Its EC50 is > 10 µM.

`CN1CCN(C(=O)CC(=O)N2CCc3ccccc3[C@@H]2c2ccc(F)cc2)CC1` [Compound 2189, (S)-1-(1-(4-fluorophenyl)-3,4-dihydroisoquinolin-2(1H)-yl)-3-(4-methylpiperazin-1-yl) propane-1,3-dione] was tested. Which EC50 did it give?
Its EC50 is 3.32 µM.

For `C#CCN1CCC(COC(=O)N2CCc3ccccc3[C@@H]2c2ccc(F)cc2)CC1` [Compound 2194, (1-(prop-2-yn-1-yl)piperidin-4-yl)methyl (S)-1-(4-fluorophenyl)-3,4-dihydroisoquinoline-2(1H)-carboxylate], which EC50 is on record?
Its EC50 is 3.2 µM.

With `O=C(NCC12CCN(CC1)CC2)N1CCc2ccccc2[C@@H]1c1ccc(F)cc1` [Compound 2178] as the molecule, how does the EC50 read?
The EC50 was 0.59 µM.

With `COC(=O)c1ccc2c(c1)CCN(C(=O)OCC13CCN(CC1)CC3)[C@@H]2c1ccc(F)cc1` [Compound 2073] as the molecule, how does the EC50 read?
Its EC50 is > 10 µM.

For `CN1C2CCC1[C@@H](OC(=O)N1CCc3ccccc3[C@@H]1c1ccc(F)cc1)CC2` (stereo partly shown) [Compound 2016], which EC50 is on record?
Its EC50 is 0.581 µM.

Which EC50 does the source give for `CN1CC2OCC(OC(=O)N3CCc4ccccc4[C@@H]3c3ccc(F)cc3)C2C1` (single isomer, unassigned) [Compound 2076] here?
The EC50 was > 10 µM.

How did the EC50 turn out when `CNC(=O)c1ccc2c(c1)CCN(C(=O)NCC13CCN(CC1)CC3)[C@@H]2c1ccc(F)cc1` [Compound 2071] was run?
Its EC50 is 3.72 µM.

With `O=C(NCc1ccncc1)N1CCc2ccccc2[C@@H]1c1ccc(F)cc1` [Compound 2152] as the molecule, how does the EC50 read?
The EC50 was 6.4 µM.

With `CN1CCO[C@H](CC(=O)N2CCc3ccccc3[C@@H]2c2ccc(F)cc2)C1` [Compound 2003] as the molecule, how does the EC50 read?
The EC50 was 1.13 µM.

`CNC(=O)c1ccc2c(c1)CCN(C(=O)OCC13CCN(CC1)CC3)[C@@H]2c1ccc(F)cc1` [Compound 2081] was tested. Which EC50 did it give?
The EC50 was > 10 µM.

With `C#CCOc1ccc2c(c1)CCN(C(=O)OCC13CCN(CC1)CC3)[C@H]2c1ccc(F)cc1` [Compound 2078] as the molecule, how does the EC50 read?
Its EC50 is 5.35 µM.

With `O=C(N[C@H]1CCN2CCC[C@H]12)N1CCc2ccccc2[C@@H]1c1ccc(F)cc1` [Compound 2050] as the molecule, how does the EC50 read?
Its EC50 is 3.9 µM.

How did the EC50 turn out when `CN1CC2(CC(OC(=O)N3CCc4ccccc4[C@@H]3c3ccc(F)cc3)C2)C1` [Compound 2019] was run?
The EC50 was 0.965 µM.

For `O=C(N[C@@H]1CCN2CCC[C@H]12)N1CCc2ccccc2[C@@H]1c1ccc(F)cc1` [Compound 2048], which EC50 is on record?
The EC50 was 1.9 µM.

`O=C(OCC12CCN(CC1)CC2)N1CCc2ccccc2[C@H]1c1ccc(OCc2ncccn2)cc1` [Compound 2156] was tested. Which EC50 did it give?
The EC50 was 0.713 µM.

Which EC50 does the source give for `C#CCOc1ccc2c(c1)CCN(C(=O)N[C@@H]1CN3CCC1CC3)[C@H]2c1ccc(F)cc1` [Compound 2063] here?
Its EC50 is > 10 µM.

Same assay, conditions: Mus musculus, BV-2, PGRN assay, Table D; secreted mouse PGRN in cell culture medium, ELISA

How did the EC50 turn out when `CN1CCC(OC2(C(=O)N3CCc4ccccc4[C@@H]3c3ccc(F)cc3)CC2)CC1` [Compound 2247] was run?
The EC50 was > 10 µM.

Which EC50 does the source give for `O=C(OC[C@@]1(F)CCNC1)N1CCc2ccccc2[C@@H]1c1ccc(F)cc1` (single isomer, unassigned) [Compound 2255] here?
The EC50 was 0.24 µM.

For `CN(C(=O)N1CCc2ccccc2[C@@H]1c1ccc(F)cc1)[C@@H]1CNCC1(F)F` [Compound 2296, (S)—N—((R)-4,4-difluoropyrrolidin-3-yl)-1-(4-fluorophenyl)-N-methyl-3,4-dihydroisoquinoline-2(1H)-carboxamide], which EC50 is on record?
Its EC50 is 4.02 µM.

`O=C(NC[C@@H]1CCCNC1)N1CCc2ccccc2[C@@H]1c1ccc(F)cc1` [Compound 2221] was tested. Which EC50 did it give?
Its EC50 is 7.83 µM.

For `CN1CC(CNC(=O)N2CCc3ccccc3[C@@H]2c2ccc(F)cc2)C1` [Compound 2282], which EC50 is on record?
Its EC50 is > 10 µM.

Which EC50 does the source give for `CN1CC[C@H](O)[C@@H](OC(=O)N2CCc3ccccc3[C@@H]2c2ccc(F)cc2)[C@@H]1CO` (single isomer, unassigned) [Compound 2305] here?
Its EC50 is 5.87 µM.

`CN1CCN(C(=O)N2CCc3ccccc3[C@@H]2c2ccc(F)cc2)CC(F)(F)C1` [Compound 2261, (S)-(6,6-difluoro-4-methyl-1,4-diazepan-1-yl)(1-(4-fluorophenyl)-3,4-dihydroisoquinolin-2(1H)-yl)methanone hydrochloride] was tested. Which EC50 did it give?
Its EC50 is > 10 µM.

With `CN(C(=O)N1CCc2ccccc2[C@@H]1c1ccc(F)cc1)[C@H]1CCNC1` [Compound 2248] as the molecule, how does the EC50 read?
The EC50 was 1.24 µM.

How did the EC50 turn out when `CN1C[C@@H](NC(=O)N2CCc3ccccc3[C@H]2c2ccc(F)cc2)C2(CC2)C1` (single isomer, unassigned) [Compound 2318] was run?
The EC50 was 3.35 µM.

How did the EC50 turn out when `O=C(OC[C@@H]1CCNC1)N1CCc2ccccc2[C@@H]1c1ccc(F)cc1` [Compound 2230] was run?
Its EC50 is 1.07 µM.

With `O=C(N1CCNCC(F)(F)C1)N1CCc2ccccc2[C@@H]1c1ccc(F)cc1` [Compound 2262, (S)-(6,6-difluoro-1,4-diazepan-1-yl)(1-(4-fluorophenyl)-3,4-dihydroisoquinolin-2(1H)-yl)methanone] as the molecule, how does the EC50 read?
Its EC50 is > 10 µM.

How did the EC50 turn out when `N[C@H]1CCN(C(=O)N2CCc3ccccc3[C@@H]2c2ccc(F)cc2)C1` [Compound 2284] was run?
The EC50 was 0.806 µM.

Which EC50 does the source give for `CN1CCC(C2(OC(=O)N3CCc4ccccc4[C@@H]3c3ccc(F)cc3)CC2)CC1` [Compound 2215] here?
Its EC50 is 2.7 µM.

How did the EC50 turn out when `CC1(C)CNC[C@@H]1NC(=O)N1CCc2ccccc2[C@@H]1c1ccc(F)cc1` [Compound 2268] was run?
Its EC50 is 0.18 µM.

For `CN1CC[C@H](NC(=O)N2CCc3ccccc3[C@@H]2c2ccc(F)cc2)C1` [Compound 2237, (S)-1-(4-fluorophenyl)-N—((S)-1-methylpyrrolidin-3-yl)-3,4-dihydroisoquinoline-2(1H)-carboxamide], which EC50 is on record?
The EC50 was 0.43 µM.

Which EC50 does the source give for `O=C(OCC1(F)CNC1)N1CCc2ccccc2[C@@H]1c1ccc(F)cc1` [Compound 2258] here?
Its EC50 is 0.27 µM.

Same assay, conditions: PGRN assay, Table D; secreted mouse PGRN in cell culture medium, ELISA

For `CN(C(=O)N1CCc2ccccc2[C@H]1c1ccc(F)cc1)[C@H]1CCNC1` [Compound 2254], which EC50 is on record?
The EC50 was 2.91 µM.

Source: patent publication US20220251084A1, “PROGRANULIN MODULATORS AND METHODS OF USING THE SAME” (ARKUDA THERAPEUTICS, priority 2019, published 2022)
